Source: patent US20220281886A1, “NATRIURETIC PEPTIDE RECEPTOR A AGONISTS USEFUL FOR THE TREATMENT OF CARDIOMETABOLIC DISEASES, KIDNEY DISEASE AND DIABETES” (Merck Sharp & Dohme Corp., priority 2019, published 2022)

Biological target: T1, hNPRA (Homo sapiens, UniProt P16066)
T1 construct: expressed in transfected cells
T1 sequence (P16066 33-1061): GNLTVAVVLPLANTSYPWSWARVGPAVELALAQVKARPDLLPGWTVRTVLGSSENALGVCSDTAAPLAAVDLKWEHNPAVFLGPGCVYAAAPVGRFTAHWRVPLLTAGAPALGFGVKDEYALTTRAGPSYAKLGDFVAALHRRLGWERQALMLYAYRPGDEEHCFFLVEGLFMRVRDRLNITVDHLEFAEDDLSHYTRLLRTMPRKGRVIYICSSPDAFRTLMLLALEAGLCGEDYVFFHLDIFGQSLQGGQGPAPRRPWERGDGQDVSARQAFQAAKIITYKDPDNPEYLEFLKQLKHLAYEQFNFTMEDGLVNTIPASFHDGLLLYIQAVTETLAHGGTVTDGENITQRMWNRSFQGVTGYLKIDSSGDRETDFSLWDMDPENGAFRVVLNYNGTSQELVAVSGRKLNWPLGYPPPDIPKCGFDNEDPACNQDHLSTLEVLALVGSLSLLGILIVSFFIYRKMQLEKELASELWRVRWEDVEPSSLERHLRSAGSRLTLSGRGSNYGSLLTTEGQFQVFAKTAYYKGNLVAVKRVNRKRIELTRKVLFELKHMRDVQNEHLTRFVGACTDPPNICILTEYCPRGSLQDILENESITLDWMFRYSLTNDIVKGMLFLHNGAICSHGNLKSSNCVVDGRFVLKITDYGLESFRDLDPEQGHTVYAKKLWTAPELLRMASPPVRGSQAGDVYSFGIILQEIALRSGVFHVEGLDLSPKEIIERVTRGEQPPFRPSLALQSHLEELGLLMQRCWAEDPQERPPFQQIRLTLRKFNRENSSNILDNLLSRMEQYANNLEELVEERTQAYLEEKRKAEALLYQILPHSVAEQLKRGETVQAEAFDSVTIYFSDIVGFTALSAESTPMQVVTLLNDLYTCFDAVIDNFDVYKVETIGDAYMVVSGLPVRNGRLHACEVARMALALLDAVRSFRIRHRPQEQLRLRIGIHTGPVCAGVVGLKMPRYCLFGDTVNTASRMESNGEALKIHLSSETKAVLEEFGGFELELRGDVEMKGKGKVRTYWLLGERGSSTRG
Experiment: NPRA Functional Cell Assay (cGMP HTRF)
Format: cell-based
Settings: Human NPRA HEK JumpIn stable cells; cGMP by HTRF after 1 hour at 37° C.; 10-point dose response
Text: Assay Buffer components HEPES and Opti-MEM® I Reduced-Serum with Glutamine (no phenol red) were from Gibco/Invitrogen (Thermo Fisher Scientific, Waltham, Mass. USA). 3-Isobutyl-1-methylxanthine (IBMX) and 4-(3-Butoxy-4-methoxybenzyl)imidazolidin-2-one (RO20) were obtained from Sigma-Aldrich (St. Louis, Mo., USA). DPBS (Dulbecco's phosphate-buffered saline) without Ca2+ and Mg2+ was purchased from GE Healthcare Bio-Sciences (Pittsburgh, Pa., USA). 384 well white Optiplates were from Perkin Elmer (Atlantic Highlands, N.J., USA). Human ANP (Atrial Natriuretic Peptide) (1-28) was purchased from Sigma-Aldrich (Catalog #A1663) and rat ANP (1-28) from Bachem (Torrance, Calif., USA) (Catalog #H2100). Human-BNP (Human-Brain Natriuretic Peptide) (1-32 AA) was purchased from American Peptide Company (Sunnyvale, Calif., USA) (product No. 14-1-90). cGMP kits were purchased from Cisbio. The assay ready frozen (ARF) Human/rat/dog NPRA HEK JumpIn Stable frozen cells (low passage number 5-11) were prepared in-house.
Test compounds were titrated in DMSO in a 10-point dose response in a separate step followed by a 100-fold dilution into the reaction. Positive response for each assay was determined using 10 nM rat-ANP peptide (rat cells) or 50 nM h-ANP peptide (human and dog cells).
Cells were thawed, washed with DPBS and resuspended in assay buffer (Opti-MEM+Glutamine, phenol red free media, 10 mM HEPES, 100 uM IBMX and 100 uM RO20) that was warmed to 37° C. Cells were then transferred to microplates via a Microplate Combi dispenser at a density of 1500, 400 and 1200 cells/well for human, rat and dog cells respectively, followed by acoustic transfer (Echo) of compound.
(§1) Compounds and cells were incubated at 37° C. with 5% CO2 for 1 hour, after which the cells were lysed and cGMP was captured using a CisBio cGMP HTRF assay kit. The TRF signal was measured with an Envision plate reader (emission set to 615 and 665 nm) after 1 hour incubation at ambient temperature. The TRF signal was converted to [cGMP] through the use of a cGMP calibration curve on each microplate. EC50's were generated from the resulting dose response curves by use of a 4 parameter logistic algorithm.
Assay Buffer components HEPES and Opti-MEM® I Reduced-Serum with Glutamine (no phenol red) were from Gibco/Invitrogen. 3-Isobutyl-1-methylxanthine (IBMX) and 4-(3-Butoxy-4-methoxybenzyl)imidazolidin-2-one (RO20) were obtained from Sigma. DPBS (Dulbecco's phosphate-buffered saline) without Ca2+ and Mg2+ was purchased from GE Healthcare Bio-Sciences (Pittsburgh, Pa., USA). 384 well white Optiplates were from Perkin Elmer (Atlantic Highlands, N.J., USA). Human ANP (1-28) was purchased from Sigma (A1663) and rat ANP (1-28) from Bachem (H2100). Human-BNP (1-32 AA) was purchased from American Peptide Company (Sunnyvale, Calif., USA) (product No. 14-1-90). cGMP kits were purchased from Cisbio (Bedford, Mass., USA). The assay ready frozen (ARF) Human/rat/dog NPRA HEK JumpIn Stable frozen cells (low passage number 5-11) were prepared in-house.
as §1, with “Envision®” for “Envision”, “(Perkin Elmer)(emission” for “(emission”
hNPRA EC50 (nM) are were determined for the compounds of Example 1 through 273 and are reported in the Experimental section of this application.

Row | EC50 [µM] | SMILES
1 | 0.258 | CC(C)C1CCN(CC[C@@H](NC(=O)c2cc(F)c3nc4c(cc3c2)C[C@](F)(C(C)C)CC4)c2ccc(-c3ccnnc3)nc2)CC1 (racemic) [Example 56, rac-(7S)-4,7-difluoro-7-isopropyl-N-[rac-(1R)-3-(4-isopropyl-1-piperidyl)-1-(6-pyridazin-4-yl-3-pyridyl)propyl]-6,8-dihydro-5H-acridine-2-carboxamide]
2 | 0.142 | CC(C)[C@]1(F)CCc2nc3c(F)cc(C(=O)N[C@H](CCN4CCCOCC4)c4ccc(-c5ccnnc5)nc4)cc3cc2C1 (racemic) [Example 57, rac-(7S)-4,7-difluoro-7-isopropyl-N-[rac-(1R)-3-(1,4-oxazepan-4-yl)-1-(6-pyridazin-4-yl-3-pyridyl)propyl]-6,8-dihydro-5H-acridine-2-carboxamide]
3 | 0.0797 | CC(C)[C@]1(F)CCc2nc3c(F)cc(C(=O)N[C@H](CCN4CCCCC4CO)c4ccc(-c5ccnnc5)nc4)cc3cc2C1 (mixture of isomers) [Example 58, rac-(7S)-4,7-difluoro-7-isopropyl-N-[rac-(1R)-3-[2-(hydroxymethyl)-1-piperidyl]-1-(6-pyridazin-4-yl-3-pyridyl)propyl]-6,8-dihydro-5H-acridine-2-carboxamide]
4 | 0.434 | CC(C)[C@]1(F)CCc2nc3c(F)cc(C(=O)N[C@H](CCN4CCCCC4CN(C)C)c4ccc(-c5ccnnc5)nc4)cc3cc2C1 (mixture of isomers) [Example 59, rac-(7S)-4,7-difluoro-7-isopropyl-N-[rac-(1R)-3-[2-[(dimethylamino)methyl]-1-piperidyl]-1-(6-pyridazin-4-yl-3-pyridyl)propyl]-6,8-dihydro-5H-acridine-2-carboxamide]
5 | 0.182 | CC(C)[C@]1(F)CCc2nc3c(F)cc(C(=O)N[C@H](CCN4CCC(CN5CCOCC5)CC4)c4ccc(-c5ccnnc5)nc4)cc3cc2C1 (racemic) [Example 60, rac-(7S)-4,7-difluoro-7-isopropyl-N-[rac-(1R)-3-[4-(morpholinomethyl)-1-piperidyl]-1-(6-pyridazin-4-yl-3-pyridyl)propyl]-6,8-dihydro-5H-acridine-2-carboxamide]
6 | 0.103 | CC(C)[C@]1(F)CCc2nc3c(F)cc(C(=O)N[C@H](CCN4[C@H](C)CCC[C@@H]4C)c4ccc(-c5ccnnc5)nc4)cc3cc2C1 (racemic) [Example 61, rac-(7S)-4,7-difluoro-7-isopropyl-N-[rac-(1R)-1-(6-pyridazin-4-yl-3-pyridyl)-3-[rac-(2R,6S)-2,6-dimethyl-1-piperidyllpropyl]-6,8-dihydro-5H-acridine-2-carboxamide]
7 | 0.0603 | CC(C)[C@]1(F)CCc2nc3c(F)cc(C(=O)N[C@H](CCN4CCC5(CCO5)CC4)c4ccc(-c5ccnnc5)nc4)cc3cc2C1 (racemic) [Example 62, rac-(7S)-4,7-difluoro-7-isopropyl-N-[rac-(1R)-3-(1-oxa-7-azaspiro[3.5]nonan-7-yl)-1-(6-pyridazin-4-yl-3-pyridyl)propyl]-6,8-dihydro-5H-acridine-2-carboxamide]
8 | 1.19 | CC(C)[C@]1(F)CCc2nc3c(F)cc(C(=O)N[C@H](CCN4CC(O)C4)c4ccc(-c5ccnnc5)nc4)cc3cc2C1 (racemic) [Example 63, rac-(7S)-4,7-difluoro-7-isopropyl-N-[rac-(1R)-3-(3-hydroxyazetidin-1-ium-1-yl)-1-(6-pyridazin-4-yl-3-pyridyl)propyl]-6,8-dihydro-5H-acridine-2-carboxamide;2,2,2-trifluoroacetate]
9 | 1.06 | CC(C)[C@]1(F)CCc2nc3c(F)cc(C(=O)N[C@H](CCN4CCC(C(F)(F)F)CC4)c4ccc(-c5ccnnc5)nc4)cc3cc2C1 (racemic) [Example 64, rac-(7S)-4,7-difluoro-7-isopropyl-N-[rac-(1R)-1-(6-pyridazin-4-yl-3-pyridyl)-3-[4-(trifluoromethyl)-1-piperidyllpropyl]-6,8-dihydro-5H-acridine-2-carboxamide]
